For the experiment, the system named is clinically isolated M. tuberculosis. The experiment in a line: microbe, parasite or virus in culture. It is filed as cell-based.

Where “and” joins values, the source holds several entries; their conditions need not be identical. Equal values may be shown once.

On to `C[C@]1(COc2ccc(N3CCC(Oc4ccc(OC(F)(F)F)cc4)CC3)cc2)Cn2cc([N+](=O)[O-])nc2O1` [OPC-67683, (R)-2-methyl-6-nitro-2-(4-[4-(4-trifluoromethoxyphenoxy)piperidin-1-yl]phenoxymethyl}-2,3-dihydroimidazo[2,1-b]oxazole], for which the “Cross-resistance with the currently used anti-TB drugs” value is “no cross-resistance”; the MIC90 is 0.0134 µg/mL and 0.01221 µg/mL and 0.01279 µg/mL and 0.01341 µg/mL.
